{"source": "patent US20250230193A1", "about": "“CYCLIC COMPOUND HAVING SELECTIVE KRAS INHIBITORY EFFECT ON HRAS AND NRAS” (CHUGAI SEIYAKU KABUSHIKI KAISHA, priority 2022, published 2025)", "key": {"[1]": {"molecular_target": "GDP-bound HRAS wild-type protein (Homo sapiens, UniProt P01112)", "sequence (P01112 whole entry)": "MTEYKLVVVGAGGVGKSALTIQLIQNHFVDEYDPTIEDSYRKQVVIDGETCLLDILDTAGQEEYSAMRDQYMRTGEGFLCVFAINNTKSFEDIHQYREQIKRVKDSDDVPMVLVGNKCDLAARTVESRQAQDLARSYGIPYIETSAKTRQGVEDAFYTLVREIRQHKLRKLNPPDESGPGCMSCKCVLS", "experiment": "Binding to HRAS by surface plasmon resonance (SPR), Single Cycle Kinetics", "details": "for HRAS/KRAS (ratio of KD value for HRAS to KD value for KRAS) / HRAS/KRAS (ratio of KD value with respect to HRAS to KD value with respect to KRAS): GDP-bound HRAS wild-type vs GDP-bound KRAS wild-type; for HRAS/KRAS (ratio of KD value for HRAS to KD value for KRAS) / HRAS/KRAS (ratio of KD value with respect to HRAS to KD value with respect to KRAS) / HRAS/KRAS (ratio of KD for GDP-bound HRAS wild-type to KD for KRAS): SPR"}, "[2]": {"molecular_target": "GDP-bound NRAS wild-type protein (Homo sapiens, UniProt P01111)", "sequence (P01111 whole entry)": "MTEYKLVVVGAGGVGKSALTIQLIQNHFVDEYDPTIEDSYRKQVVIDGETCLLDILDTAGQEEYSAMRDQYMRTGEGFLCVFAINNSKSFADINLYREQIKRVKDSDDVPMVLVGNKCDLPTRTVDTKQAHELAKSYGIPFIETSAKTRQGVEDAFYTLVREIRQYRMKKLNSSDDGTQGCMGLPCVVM", "experiment": "Binding to NRAS by surface plasmon resonance (SPR), Single Cycle Kinetics", "details": "for NRAS/KRAS (ratio of KD value for NRAS to KD value for KRAS) / NRAS/KRAS (ratio of KD value with respect to NRAS to KD value with respect to KRAS): GDP-bound NRAS wild-type vs GDP-bound KRAS wild-type; for NRAS/KRAS (ratio of KD value for NRAS to KD value for KRAS) / NRAS/KRAS (ratio of KD value with respect to NRAS to KD value with respect to KRAS) / NRAS/KRAS (ratio of KD for GDP-bound NRAS wild-type to KD for KRAS): SPR"}}, "note": "Where a SMILES comes first, the peptide text is derived from it. Bridges are numbered along the chain shown (N, C = ends). [ ]: non-standard residue; d: D form. The star is where a group is joined. hPhe(3-Cl-4-CF3) = N[C@@H](CCc1ccc(C(F)(F)F)c(Cl)c1)C(=O)O; NPrPhe(4-CF3) = CCCN[C@@H](Cc1ccc(C(F)(F)F)cc1)C(=O)O; NMeGly(cPent) = CN[C@H](C(=O)O)C1CCCC1; Aze(3S-Me) = C[C@H]1CN[C@@H]1C(=O)O; NMeD = CN[C@@H](CC(=O)O)C(=O)O; NMeL = CN[C@@H](CC(C)C)C(=O)O; Morpholide = C1CN(*)CCO1; Ac5c = NC1(C(=O)O)CCCC1; Aze = O=C(O)[C@@H]1CCN1; Ac4c = NC1(C(=O)O)CCC1; Sar = CNCC(=O)O"}
{"smiles": "CCC(CC)[C@H]1C(=O)N(C)[C@H](C(=O)N(C)C)CC(=O)N(C)[C@@H](COC)C(=O)N[C@@H]([C@@H](C)CC)C(=O)N(C)CC(=O)N(C)[C@H]2C/C=C\\CCN(C2=O)[C@@H](Cc2ccc(C(F)(F)F)cc2)C(=O)N(C)CC(=O)N[C@@H](CCc2ccc(Cl)c(Cl)c2)C(=O)N2C[C@H](OC(C)C)C[C@H]2C(=O)NC2(CC(C)(C)C2)C(=O)N1C", "note": "[PP2533]", "values": [{"measurement": "HRAS/KRAS (ratio of KD value with respect to GDP-bound HRAS wild-type protein to KD value with respect to KRAS)", "setting": "[1]; KD ratio HRAS/KRAS, class symbols", "value": "A (a compound having 10 or more and less than 20 is denoted as A)"}, {"measurement": "NRAS/KRAS (ratio of KD value with respect to GDP-bound NRAS wild-type protein to KD value with respect to KRAS)", "setting": "[2]; KD ratio NRAS/KRAS, class symbols", "value": "AA (a compound having 20 or more is denoted as AA)"}]}
{"smiles": "CCCN(C)C(=O)[C@@H]1CC(=O)N(C)[C@@H](CC(F)F)C(=O)N[C@@H]([C@@H](C)CC)C(=O)N(C)CC(=O)N(C)[C@H]2C/C=C\\CCN(C2=O)[C@@H](Cc2ccc(C(F)(F)F)cc2)C(=O)N(C)CC(=O)N[C@@H](CCc2cc(F)c(C(F)(F)F)c(F)c2)C(=O)N2C[C@H](OCC)C[C@H]2C(=O)NC2(CCC2)C(=O)N(C)[C@@H](C2CCCC2)C(=O)N1C", "note": "[PP1700]", "values": [{"measurement": "HRAS/KRAS (ratio of KD value for HRAS to KD value for KRAS)", "setting": "[1]; KD ratio", "value": "A (a compound having 10 or more and less than 20 is denoted as A)"}, {"measurement": "NRAS/KRAS (ratio of KD value for NRAS to KD value for KRAS)", "setting": "[2]; KD ratio", "value": "A (a compound having 10 or more and less than 20 is denoted as A)"}]}
{"smiles": "CCCO[C@@H]1C[C@H]2C(=O)NC3(CCC3)C(=O)N(C)[C@@H](C3CCCC3)C(=O)N(C)[C@H](C(=O)N3CCOCC3)CC(=O)N(C)[C@@H](CC(C)C)C(=O)N[C@@H]([C@@H](C)CC)C(=O)N(C)CC(=O)N(C)[C@H]3CCCCCN(C3=O)[C@@H](Cc3ccc(C(F)(F)F)cc3)C(=O)N(C)CC(=O)N[C@@H](CCc3cc(F)c(C(F)(F)F)c(F)c3)C(=O)N2C1", "note": "[PP1161]", "values": [{"measurement": "HRAS/KRAS (ratio of KD value with respect to HRAS to KD value with respect to KRAS)", "setting": "[1]; KD ratio", "value": "B (a compound having 3 or more and less than 10 is denoted as B)"}, {"measurement": "NRAS/KRAS (ratio of KD value with respect to NRAS to KD value with respect to KRAS)", "setting": "[2]; KD ratio", "value": "B (a compound having 3 or more and less than 10 is denoted as B)"}]}
{"smiles": "CCCN1C(=O)CN(C)C(=O)[C@@H]2[C@@H](C)CN2C(=O)[C@H]([C@@H](C)CC)NC(=O)[C@H](CC(C)C)N(C)C(=O)C[C@@H](C(=O)N2CCOCC2)N(C)C(=O)[C@H](C2CCCC2)N(C)C(=O)C2(CCCC2)NC(=O)[C@@H]2CCCN2C(=O)[C@H](CCc2ccc(C(F)(F)F)c(Cl)c2)NC(=O)CN(C)C(=O)[C@@H]1Cc1ccc(C(F)(F)F)cc1", "note": "[PP0258] ([NMeL]I[Aze(3S-Me)][Sar][NPrPhe(4-CF3)][Sar][hPhe(3-Cl-4-CF3)]P[Ac5c][NMeGly(cPent)][NMeD]-Morpholide; lactam N-11)", "values": [{"measurement": "HRAS/KRAS (ratio of KD for GDP-bound HRAS wild-type to KD for KRAS)", "setting": "[1]; KD ratio HRAS/KRAS", "value": "C (A compound having a KD ratio of 0.1 or more and less than 3 is denoted as C)"}, {"measurement": "NRAS/KRAS (ratio of KD for GDP-bound NRAS wild-type to KD for KRAS)", "setting": "[2]; KD ratio NRAS/KRAS", "value": "B (a compound having 3 or more and less than 10 is denoted as B)"}]}
{"smiles": "CCCN1C(=O)[C@@H]2CCN2C(=O)CN(C)C(=O)[C@H]([C@@H](C)CC)NC(=O)[C@H](CC(C)C)N(C)C(=O)C[C@@H](C(=O)N(C)C)NC(=O)[C@H](C2CCCC2)N(C)C(=O)C2(CCC2)NC(=O)[C@@H]2CCCN2C(=O)[C@H](CCc2ccc(C(F)(F)F)c(Cl)c2)NC(=O)CN(C)C(=O)[C@@H]1Cc1ccc(C(F)(F)F)cc1", "note": "[PP0386] ([NMeL]I[Sar][Aze][NPrPhe(4-CF3)][Sar][hPhe(3-Cl-4-CF3)]P[Ac4c][NMeGly(cPent)]D-NMe2; lactam N-11)", "values": [{"measurement": "HRAS/KRAS (ratio of KD for GDP-bound HRAS wild-type to KD for KRAS)", "setting": "[1]; KD ratio HRAS/KRAS", "value": "B (a compound having 3 or more and less than 10 is denoted as B)"}, {"measurement": "NRAS/KRAS (ratio of KD for GDP-bound NRAS wild-type to KD for KRAS)", "setting": "[2]; KD ratio NRAS/KRAS", "value": "C (A compound having a KD ratio of 0.1 or more and less than 3 is denoted as C)"}]}
{"smiles": "CC[C@H](C)[C@@H]1NC(=O)[C@H](COC)N(C)C(=O)C[C@@H](C(=O)N(C)C)N(C)C(=O)[C@H](C2CCCC2)N(C)C(=O)C2(CC(C)(C)C2)NC(=O)[C@@H]2C[C@@H](OC(C)C)CN2C(=O)[C@H](CCc2cc(F)c(C(F)(F)F)c(F)c2)NC(=O)CN(C)C(=O)[C@H](CC2CCCCC2)N2CC/C=C\\C[C@@H](C2=O)N(C)C(=O)CN(C2CC2)C1=O", "note": "[PP2511]", "values": [{"measurement": "HRAS/KRAS (ratio of KD value with respect to HRAS to KD value with respect to KRAS)", "setting": "[1]", "value": "A (a compound having 10 or more and less than 20 is denoted as A)"}, {"measurement": "NRAS/KRAS (ratio of KD value with respect to NRAS to KD value with respect to KRAS)", "setting": "[2]", "value": "A (a compound having 10 or more and less than 20 is denoted as A)"}]}
{"smiles": "CC[C@H](C)[C@@H]1NC(=O)[C@H](CC2CC2)N(C)C(=O)C[C@@H](C(=O)N(C)C)N(C)C(=O)[C@H](C2CCCC2)N(C)C(=O)C2(CCC2)N(C)C(=O)[C@@H]2C[C@@H](C)CN2C(=O)[C@H](CCc2cc(F)c(C(F)(F)F)c(F)c2)NC(=O)CN(C)C(=O)[C@H](Cc2ccc(C)cc2)N2CC/C=C\\C[C@@H](C2=O)N(C)C(=O)[C@@H]2CCCN2C1=O", "note": "[PP1801]", "values": [{"measurement": "HRAS/KRAS (ratio of KD value for HRAS to KD value for KRAS)", "setting": "[1]; KD ratio", "value": "B (a compound having 3 or more and less than 10 is denoted as B)"}, {"measurement": "NRAS/KRAS (ratio of KD value for NRAS to KD value for KRAS)", "setting": "[2]; KD ratio", "value": "A (a compound having 10 or more and less than 20 is denoted as A)"}]}
{"smiles": "CC[C@H](C)[C@@H]1NC(=O)[C@H](CC2CC2)N(C)C(=O)C[C@@H](C(=O)N(C)CC)N(C)C(=O)[C@H](C2CCCC2)N(C)C(=O)C2(CC(C)(C)C2)NC(=O)[C@@H]2C[C@@H](C)CN2C(=O)[C@H](CCc2ccc(C(F)(F)F)c(OC)c2)NC(=O)CN(C)C(=O)[C@H](Cc2ccc(C)cc2)N2CC/C=C\\C[C@@H](C2=O)N(C)C(=O)CN(C)C1=O", "note": "[PP1902]", "values": [{"measurement": "HRAS/KRAS (ratio of KD value for HRAS to KD value for KRAS)", "setting": "[1]; KD ratio", "value": "A (a compound having 10 or more and less than 20 is denoted as A)"}, {"measurement": "NRAS/KRAS (ratio of KD value for NRAS to KD value for KRAS)", "setting": "[2]; KD ratio", "value": "A (a compound having 10 or more and less than 20 is denoted as A)"}]}
